Experimental data reported in patent US12116388B2, “Amylin receptor agonists” (Novo Nordisk A/S, priority 2022, dated 2024).
Starred links: 1 amine or outer side, 2 acyl side, 3 side chain; linkers in the order of their positions; H or OH if unused. Residues, ends and D or L forms follow the SMILES beside them. Groups on a side chain read outwards from the residue. *: point of attachment. C18 diacid = O=C(O)CCCCCCCCCCCCCCCCC(=O)*; C16 diacid = O=C(O)CCCCCCCCCCCCCCC(=O)*; γGlu = O=C(O)[C@H](CCC(=O)[*:2])N[*:1]

Experiments:
[1] = molecular target: T1, human calcitonin receptor (hCTR) (Homo sapiens, UniProt P30988); test: Human calcitonin receptor (hCTR) in vitro potency assay, CRE-luciferase reporter in BHK cells; assay type: cell-based; details: BHK hCTR/CRE-Luc cells, 3 hours incubation, assay buffer with 1% ovalbumin; read-out: hCalcR potency, EC50
T1 construct: host or cells: BHK (Baby Hamster Kidney), Hollex-1 cell line
T1 sequence (P30988 25-474): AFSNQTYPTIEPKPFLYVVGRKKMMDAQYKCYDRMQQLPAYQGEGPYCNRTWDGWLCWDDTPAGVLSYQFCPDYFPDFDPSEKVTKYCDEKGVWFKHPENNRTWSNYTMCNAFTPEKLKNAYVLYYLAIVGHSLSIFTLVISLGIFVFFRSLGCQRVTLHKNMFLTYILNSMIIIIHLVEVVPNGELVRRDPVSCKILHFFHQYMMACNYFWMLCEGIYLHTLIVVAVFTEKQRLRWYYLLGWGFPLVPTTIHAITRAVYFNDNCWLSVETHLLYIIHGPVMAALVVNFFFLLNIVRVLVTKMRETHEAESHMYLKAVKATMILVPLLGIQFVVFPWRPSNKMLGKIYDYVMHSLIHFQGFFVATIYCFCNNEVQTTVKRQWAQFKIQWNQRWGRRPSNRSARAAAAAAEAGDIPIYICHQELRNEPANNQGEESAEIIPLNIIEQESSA
Outline: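 Luciferase signal from a CRE reporter served as the cAMP read-out after 3 h, 37 °C exposure to compound. Cells were stably transfected BHK expressing hCTR, and the buffer was phenol-red-free DMEM with 10 mM HEPES and 1% ovalbumin. Compounds were tested as 7-point, 7-fold dilutions, often from about 10 nM.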

[2] = molecular target: T2, human amylin receptor (hAMYR3) (Homo sapiens, UniProt O60896+P30988); test: Human amylin receptor (hAMYR3) in vitro potency assay, CRE-luciferase reporter in BHK cells; assay type: cell-based; details: BHK hAMYR3/CRE-Luc cells, 3 hours incubation, assay buffer with 1% ovalbumin
T2 construct: host or cells: BHK (Baby Hamster Kidney), Hollex-1 cell line further transfected with RAMP3
Outline: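 Luminescence from a CRE-driven luciferase reporter reflects cAMP-mediated receptor activation. Peptides were serially diluted (7 concentrations, 7-fold steps, typically starting near 10 nM) in buffer with 1% ovalbumin and applied for 3 h at 37 °C to BHK cells co-expressing calcitonin receptor (a) and RAMP3.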

T2 sequence (O60896 24-148, one chain of several): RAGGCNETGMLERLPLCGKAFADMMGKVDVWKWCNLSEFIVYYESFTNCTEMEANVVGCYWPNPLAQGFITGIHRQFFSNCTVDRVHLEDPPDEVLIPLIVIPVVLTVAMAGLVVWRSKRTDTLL

EC50 [1] | EC50 [2] | SMILES
1 pM | 1.5 pM | CC[C@H](C)[C@H](NC(=O)[C@H](CCCCNC(=O)CC[C@H](NC(=O)CCCCCCCCCCCCCCCCC(=O)O)C(=O)O)NC(=O)CNC(=O)[C@H](Cc1ccccc1)NC(=O)[C@@H]1CCCN1C(=O)[C@H](CC(=O)O)NC(=O)[C@H](CO)NC(=O)[C@H](CO)NC(=O)[C@H](Cc1c[nH]cn1)NC(=O)[C@H](Cc1c[nH]cn1)NC(=O)[C@H](CC(C)C)NC(=O)[C@H](Cc1ccccc1)NC(=O)[C@H](CCC(=O)O)NC(=O)[C@H](C)NC(=O)[C@H](CC(C)C)NC(=O)[C@H](CCCNC(=N)N)NC(=O)[C@H](CCC(N)=O)NC(=O)[C@@H](NC(=O)[C@H](CCC(N)=O)NC(=O)[C@H](C)NC(=O)[C@@H](NC(=O)[C@H](CO)NC(=O)[C@H](CC(C)C)NC(=O)[C@H](CCC(N)=O)NC(=O)[C@H](CO)NC(=O)[C@H](C)NC(C)=O)[C@@H](C)O)[C@@H](C)O)C(=O)N1CCC[C@H]1C(=O)N[C@@H](CO)C(=O)N[C@@H](CO)C(=O)N[C@H](C(=O)N[C@@H](CC(=O)O)C(=O)N[C@H](C(=O)NCC(=O)N1CCC[C@H]1C(=O)N[C@@H](CC(=O)O)C(=O)N[C@H](C(=O)N1CCC[C@H]1C(N)=O)[C@@H](C)O)C(C)C)[C@@H](C)O [Compound 19, N^1-acetyl,N{Epsilon-25}-[(4S)-4-carboxy-4-(17-carboxyheptadecanoylamino)butanoyl]-[Ala1,Ser2,Gln3,Leu4,Ser5,Ala7,Gln8,Glu14,His17,Asp21,Pro22,Lys25,Pro27,Asp31,Pro34,Asp35,Pro37]-human amylin] (Ac-ASQLSTAQTQRLAEFLHHSSDPFGK([γGlu-C18 diacid])IPSSTDVGPDTP-NH2)
1.5 pM | 1.62 pM | CC[C@H](C)[C@H](NC(=O)[C@@H]1CCCN1C(=O)CNC(=O)[C@H](Cc1ccccc1)NC(=O)[C@H](CC(N)=O)NC(=O)[C@H](CC(=O)O)NC(=O)[C@H](CO)NC(=O)[C@H](CO)NC(=O)[C@H](Cc1c[nH]cn1)NC(=O)[C@H](Cc1c[nH]cn1)NC(=O)[C@H](CC(C)C)NC(=O)[C@H](Cc1ccccc1)NC(=O)[C@H](CCC(=O)O)NC(=O)[C@H](C)NC(=O)[C@H](CC(C)C)NC(=O)[C@H](CCCNC(=N)N)NC(=O)[C@H](C)NC(=O)[C@@H](NC(=O)[C@H](CCC(N)=O)NC(=O)[C@H](C)NC(=O)[C@@H](NC(=O)[C@H](CO)NC(=O)[C@H](CC(C)C)NC(=O)[C@H](Cc1c[nH]cn1)NC(=O)[C@H](CO)NC(=O)[C@H](C)NC(=O)CC[C@H](NC(=O)CCCCCCCCCCCCCCC(=O)O)C(=O)O)[C@@H](C)O)[C@@H](C)O)C(=O)N[C@@H](CC(C)C)C(=O)N1CCC[C@H]1C(=O)N1CCC[C@H]1C(=O)N[C@H](C(=O)N[C@@H](CC(=O)O)C(=O)N[C@H](C(=O)NCC(=O)N[C@@H](CO)C(=O)N[C@@H](CC(N)=O)C(=O)N[C@H](C(=O)N1CCC[C@H]1C(N)=O)[C@@H](C)O)C(C)C)[C@@H](C)O [Compound 20, N^1-[(4S)-4-carboxy-4-(15-carboxypentadecanoylamino)butanoyl]-[Ala1,Ser2,His3,Leu4,Ser5,Ala7,Gln8,Ala10,Glu14,His17,Asp21,Pro25,Pro28,Pro29,Asp31,Pro37]-human amylin] ({C16 diacid-γGlu}-ASHLSTAQTARLAEFLHHSSDNFGPILPPTDVGSNTP-NH2)
